Measured values reported in article PMC7044277 (Nature Communications, 2020).
Values joined by “and” are separate entries in the source; they are usually repeats but may differ in a detail not shown here. Equal values may be shown once.

Legend:
[1] = target: DRD2 (D2 long receptor) wild-type (Homo sapiens, UniProt P14416); assay: Radioligand competition binding, [3H]-N-methylspiperone, HEK293T membranes; settings: DRD2; [3H]-methylspiperone (0.8-1.0 nM); read-out: Ki
DRD4 (D4.4 variant) [2] = target: T1, DRD4 (D4.4 variant) (Homo sapiens, UniProt P21917); assay: β-arrestin2 recruitment (Tango); format: cell-based; settings: DRD4; Tango; read-out: EC50 ± SEM
T1 sequence (P21917 1-419): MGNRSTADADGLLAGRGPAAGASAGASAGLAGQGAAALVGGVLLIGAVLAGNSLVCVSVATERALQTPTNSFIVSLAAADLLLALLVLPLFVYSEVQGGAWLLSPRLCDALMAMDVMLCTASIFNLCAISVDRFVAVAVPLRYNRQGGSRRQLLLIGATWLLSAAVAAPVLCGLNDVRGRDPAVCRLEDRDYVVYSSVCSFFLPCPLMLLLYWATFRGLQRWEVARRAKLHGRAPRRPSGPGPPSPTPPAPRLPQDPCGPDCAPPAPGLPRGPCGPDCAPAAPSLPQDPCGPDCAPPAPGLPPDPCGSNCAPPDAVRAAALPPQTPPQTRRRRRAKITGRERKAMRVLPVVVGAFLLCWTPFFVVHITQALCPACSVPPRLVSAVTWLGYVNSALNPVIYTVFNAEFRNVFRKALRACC

DRD2 (D2 long receptor) [3] = target: T2, DRD2 (D2 long receptor) (Homo sapiens, UniProt P14416); assay: Gαi/o-mediated cAMP inhibition (GloSensor split-luciferase cAMP reporter), HEK293T; format: cell-based; settings: for EC50: DRD2, agonist, Gαi/o-mediated cAMP inhibition, read-out: EC50 ± SEM; for response, Fig_S11d dose-response source data: replicate values;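 as to all read-outs here: compounds applied 15 min at room temperature, then luciferin plus 400 nM isoproterenol to raise cAMP through endogenous β2-adrenergic receptors, luminescence read 15 min later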
T2 sequence (P14416 whole entry): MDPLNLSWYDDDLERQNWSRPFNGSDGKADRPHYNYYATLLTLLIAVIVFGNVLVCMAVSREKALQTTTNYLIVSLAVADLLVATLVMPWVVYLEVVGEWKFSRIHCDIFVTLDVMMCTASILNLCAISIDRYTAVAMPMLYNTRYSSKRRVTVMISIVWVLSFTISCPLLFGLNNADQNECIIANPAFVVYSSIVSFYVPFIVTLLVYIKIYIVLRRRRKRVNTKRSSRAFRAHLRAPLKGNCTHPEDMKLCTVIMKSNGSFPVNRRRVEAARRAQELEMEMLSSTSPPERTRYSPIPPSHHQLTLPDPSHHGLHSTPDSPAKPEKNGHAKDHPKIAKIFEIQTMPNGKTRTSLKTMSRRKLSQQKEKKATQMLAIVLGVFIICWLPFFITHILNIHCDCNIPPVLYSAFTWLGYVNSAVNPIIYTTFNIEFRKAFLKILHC

DRD4 (D4.4 variant) [4] = target: T1, DRD4 (D4.4 variant); assay: Gαi/o-mediated cAMP inhibition (GloSensor); format: cell-based; settings: DRD4; agonist, cAMP inhibition; read-out: EC50 ± SEM
DRD2 F1103.28A [5] = target: T3, DRD2 F1103.28A (Homo sapiens, UniProt P14416, F110A); assay: Gαi/o-mediated cAMP inhibition (GloSensor), mutant; format: cell-based; parameters: expressed in transfected cells; host or cells: HEK293T (ATCC CRL-11268)
T3 sequence (P14416 whole entry F110A): as the sequence (P14416 whole entry) above, with F110A counted along it

DRD3 F1063.28A [6] = target: T4, DRD3 F1063.28A (Homo sapiens, UniProt P35462, F106A); assay: cell-based; format: cell-based; settings: DRD3 F1063.28A; Tango; read-out: EC50 ± SEM
T4 sequence (P35462 whole entry F106A): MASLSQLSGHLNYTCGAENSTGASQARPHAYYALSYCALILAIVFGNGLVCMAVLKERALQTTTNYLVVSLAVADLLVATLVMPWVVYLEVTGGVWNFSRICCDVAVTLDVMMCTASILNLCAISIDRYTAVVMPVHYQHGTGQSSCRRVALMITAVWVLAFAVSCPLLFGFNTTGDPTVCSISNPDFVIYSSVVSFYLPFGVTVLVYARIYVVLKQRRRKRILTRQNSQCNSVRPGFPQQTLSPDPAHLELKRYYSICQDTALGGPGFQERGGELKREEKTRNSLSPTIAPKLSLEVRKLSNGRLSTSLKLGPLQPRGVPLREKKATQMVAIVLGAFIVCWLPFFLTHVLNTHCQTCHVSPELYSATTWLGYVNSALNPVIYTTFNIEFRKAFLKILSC

DRD2 F1103.28A [7] = target: T3, DRD2 F1103.28A; format: binding; parameters: expressed in transfected cells; host or cells: HEK293T (ATCC CRL-11268); settings: DRD2 F1103.28A; read-out: Ki
DRD3 wild-type = DRD3 wild-type (Homo sapiens, UniProt P35462); assay: Radioligand competition binding, [3H]-N-methylspiperone; settings: for Ki: DRD3, [3H]-methylspiperone (0.8-1.0 nM), read-out: Ki; for pKi ± SEM: DRD3 wild-type
Chain of DRD3 wild-type (P35462 whole entry): as the sequence (P35462 whole entry F106A) above, with A106F counted along it

DRD3 = DRD3 (Homo sapiens, UniProt P35462); assay: β-arrestin2 recruitment (Tango); format: cell-based; settings: DRD3; Tango; read-out: EC50 ± SEM
Chain of DRD3 (P35462 whole entry): as the sequence (P35462 whole entry F106A) above, with A106F counted along it

DRD3 F1063.28A [8] = target: T4, DRD3 F1063.28A; assay: biochemical; format: binding; settings: DRD3 F1063.28A; read-out: Ki
DRD2 F1103.28A [9] = target: T3, DRD2 F1103.28A; assay: β-arrestin2 recruitment (Tango), mutant; format: cell-based; parameters: expressed in transfected cells; host or cells: HEK293T (ATCC CRL-11268)
DRD2 (D2 long receptor) [10] = target: T2, DRD2 (D2 long receptor); assay: β-arrestin2 recruitment (Tango), HTLA cells; format: cell-based; settings: for Emax relative to quinpirole response / EC50: DRD2; for Emax relative to quinpirole response: Tango; for EC50: β-arrestin2 recruitment (Tango), read-out: EC50 ± SEM; for response, Fig_S11e dose-response source data: replicate values
DRD2 F1103.28L [11] = target: T5, DRD2 F1103.28L (Homo sapiens, UniProt P14416, F110L); assay: Gαi/o-mediated cAMP inhibition (GloSensor), mutant; format: cell-based; settings: DRD2 F1103.28L (b138 head prints DRD2 F1063.28L)
T5 construct: expressed in transfected cells; host or cells: HEK293T (ATCC CRL-11268)
T5 sequence (P14416 whole entry F110L): as the sequence (P14416 whole entry) above, with F110L counted along it

DRD2 F1103.28L [12] = target: T5, DRD2 F1103.28L; assay: β-arrestin2 recruitment (Tango), mutant; format: cell-based
[13] = target: T6, DRD4 (D4.4 variant) wild-type (Homo sapiens, UniProt P21917); assay: Radioligand competition binding, [3H]-N-methylspiperone; settings: DRD4; [3H]-methylspiperone (0.8-1.0 nM); read-out: Ki
T6 sequence (P21917 1-419): T1 sequence (P21917 1-419)

Chain of DRD2 (D2 long receptor) wild-type (P14416 whole entry): as the sequence (P14416 whole entry) above

Q: Which Ki [1] does the source give for `CCOc1cccc2cc(C(C)NCC3(O)CCC3)oc12.Cl` (stereo not shown) [O4LE4] here?
A: The Ki was greater than 10 µM.

Q: And the EC50 (DRD4 (D4.4 variant) [2])?
A: The EC50 was greater than 10 µM.

Q: And the EC50 (DRD2 (D2 long receptor) [3])?
A: Its EC50 is greater than 10 µM.

Q: And the “response, Fig_S11d dose-response source data” value (DRD2 (D2 long receptor) [3]; Log[Drug] -5)?
A: The value was 88.7746 and 78.3782 and 91.7272 and 89.26 and 93.9579 and 91.5672.

Q: What about the “response, Fig_S11d dose-response source data” value (DRD2 (D2 long receptor) [3]; Log[Drug] -5.52) of the same compound?
A: The value was 76.2939 and 86.2437 and 82.5466 and 72.7587 and 77.8913 and 84.3113.

Q: What about the “response, Fig_S11d dose-response source data” value (DRD2 (D2 long receptor) [3]; Log[Drug] -6) of the same compound?
A: The value was 73.2172 and 67.3366 and 60.3892 and 68.228 and 67.275 and 64.901.

Q: And the “response, Fig_S11d dose-response source data” value (DRD2 (D2 long receptor) [3]; Log[Drug] -6.52)?
A: The value was 64.6321 and 59.5207 and 69.0487 and 71.8726 and 63.9982 and 65.6366.

Q: And the “response, Fig_S11d dose-response source data” value (DRD2 (D2 long receptor) [3]; Log[Drug] -7)?
A: Its value is 48.9755 and 46.0724 and 53.9876 and 53.6995 and 51.8772 and 46.0423.

Q: What about the “response, Fig_S11d dose-response source data” value (DRD2 (D2 long receptor) [3]; Log[Drug] -7.52) of the same compound?
A: Its value is 42.028 and 41.6806 and 36.1226 and 35.9109 and 33.9715 and 35.5263.

Q: What about the “response, Fig_S11d dose-response source data” value (DRD2 (D2 long receptor) [3]; Log[Drug] -8) of the same compound?
A: The value was 31.6316 and 34.088 and 41.4325 and 32.2829 and 31.564 and 29.1733.

Q: What about the “response, Fig_S11d dose-response source data” value (DRD2 (D2 long receptor) [3]; Log[Drug] -8.52) of the same compound?
A: Its value is 10.5658 and 5.306 and 29.9195 and 26.7491 and 32.2996 and 23.9905.

Q: And the “response, Fig_S11d dose-response source data” value (DRD2 (D2 long receptor) [3]; Log[Drug] -9)?
A: Its value is 29.0014 and 17.2156 and 19.2005 and 25.2611.

Q: And the “response, Fig_S11d dose-response source data” value (DRD2 (D2 long receptor) [3]; Log[Drug] -9.52)?
A: The value was 13.8163 and 7.489 and 22.6246 and 25.1441 and 33.3529 and 8.96.

Q: And the “response, Fig_S11d dose-response source data” value (DRD2 (D2 long receptor) [3]; Log[Drug] -10)?
A: The value was 3.445 and 9.573 and 23.9738 and 15.1965 and 19.209.

Q: What about the “response, Fig_S11d dose-response source data” value (DRD2 (D2 long receptor) [3]; Log[Drug] -10.52) of the same compound?
A: The value was 10.9876 and 14.9328 and 18.3073 and 10.6825 and 15.9488.

Q: What about the “response, Fig_S11d dose-response source data” value (DRD2 (D2 long receptor) [3]; Log[Drug] -11) of the same compound?
A: Its value is 8.655 and 3.048 and 14.6949 and 5.45 and 17.0857.

Q: What about the “response, Fig_S11d dose-response source data” value (DRD2 (D2 long receptor) [3]; Log[Drug] -11.52) of the same compound?
A: Its value is 13.0471 and 8.407 and 20.4163.

Q: And the “response, Fig_S11d dose-response source data” value (DRD2 (D2 long receptor) [3]; Log[Drug] -12)?
A: The value was 4.834 and -8.7134 and -10.8678 and -0.937.

Q: And the EC50 (DRD4 (D4.4 variant) [4])?
A: The EC50 was greater than 10 µM.

Q: What about the EC50 (DRD2 F1103.28A [5]) of the same compound?
A: Its EC50 is greater than 10 µM.

Q: What about the EC50 (DRD3 F1063.28A [6]) of the same compound?
A: The EC50 was greater than 10 µM.

Q: And the Ki (DRD2 F1103.28A [7])?
A: The Ki was greater than 10 µM.

Q: What about the Ki (DRD3 wild-type) of the same compound?
A: Its Ki is 4.07 µM.

Q: What about the “pKi ± SEM” value (DRD3 wild-type) of the same compound?
A: The value was 5.39±0.09.

Q: And the EC50 (DRD3)?
A: Its EC50 is greater than 10 µM.

Q: And the Ki (DRD3 F1063.28A [8])?
A: Its Ki is greater than 10 µM.

Q: And the EC50 (DRD2 F1103.28A [9])?
A: The EC50 was greater than 10 µM.

Q: What about the “Emax relative to quinpirole response” value (DRD2 (D2 long receptor) [10]) of the same compound?
A: Its value is 31.72%.

Q: What about the EC50 (DRD2 (D2 long receptor) [10]) of the same compound?
A: The EC50 was 4.89 ± 0.671 µM.

Q: And the “response, Fig_S11e dose-response source data” value (DRD2 (D2 long receptor) [10]; Log[Drug] -6.52)?
A: Its value is 6.042.

Q: And the “response, Fig_S11e dose-response source data” value (DRD2 (D2 long receptor) [10]; Log[Drug] -7)?
A: Its value is 4.575 and 5.092 and 4.213 and 4.207 and 4.48.

Q: And the “response, Fig_S11e dose-response source data” value (DRD2 (D2 long receptor) [10]; Log[Drug] -7.52)?
A: The value was 3.784 and 4.2108 and 4.594 and 4.116 and 3.67.

Q: What about the “response, Fig_S11e dose-response source data” value (DRD2 (D2 long receptor) [10]; Log[Drug] -8) of the same compound?
A: The value was 3.831 and 3.706 and 4.29 and 4.002 and 5.34.

Q: What about the “response, Fig_S11e dose-response source data” value (DRD2 (D2 long receptor) [10]; Log[Drug] -8.52) of the same compound?
A: The value was 4.064 and 3.966 and 4.203 and 4.282 and 4.286.

Q: What about the “response, Fig_S11e dose-response source data” value (DRD2 (D2 long receptor) [10]; Log[Drug] -9) of the same compound?
A: Its value is 3.882 and 3.744 and 4.042 and 3.918 and 3.839.

Q: And the “response, Fig_S11e dose-response source data” value (DRD2 (D2 long receptor) [10]; Log[Drug] -9.52)?
A: Its value is 3.68 and 4.032 and 4.215 and 3.926 and 3.7929.

Q: What about the “response, Fig_S11e dose-response source data” value (DRD2 (D2 long receptor) [10]; Log[Drug] -10) of the same compound?
A: The value was 3.326 and 3.898 and 4.025 and 3.996.

Q: And the “response, Fig_S11e dose-response source data” value (DRD2 (D2 long receptor) [10]; Log[Drug] -10.52)?
A: The value was 3.698 and 4.067 and 4.341 and 4.225 and 3.808.

Q: And the “response, Fig_S11e dose-response source data” value (DRD2 (D2 long receptor) [10]; Log[Drug] -11)?
A: Its value is 4.084 and 3.675 and 4.011 and 3.975 and 3.611.

Q: And the “response, Fig_S11e dose-response source data” value (DRD2 (D2 long receptor) [10]; Log[Drug] -11.52)?
A: Its value is 3.79 and 4.079 and 4.55 and 4.262 and 4.155.

Q: And the “response, Fig_S11e dose-response source data” value (DRD2 (D2 long receptor) [10]; Log[Drug] -12)?
A: The value was 5.029 and 3.661 and 4.455 and 4.071 and 4.046.

Q: And the EC50 (DRD2 F1103.28L [11])?
A: The EC50 was greater than 10 µM.

Q: What about the EC50 (DRD2 F1103.28L [12]) of the same compound?
A: The EC50 was greater than 10 µM.

Q: What about the Ki [13] of the same compound?
A: The Ki was greater than 10 µM.

Q: Which results are given for `CCOc1cccc2cc(C(C)NCC3(O)CC3)oc12.Cl` (racemic) [O4LE3]?
A: Ki [1]: > 10 µM; EC50 (DRD4 (D4.4 variant) [2]): > 10 µM; EC50 (DRD2 (D2 long receptor) [3]): > 10 µM; EC50 (DRD4 (D4.4 variant) [4]): > 10 µM; EC50 (DRD2 F1103.28A [5]): > 10 µM; EC50 (DRD3 F1063.28A [6]): > 10 µM; Ki (DRD2 F1103.28A [7]): > 10 µM; Ki (DRD3 wild-type): 4.37 µM; pKi ± SEM (DRD3 wild-type): 5.36±0.31; EC50 (DRD3): > 10 µM; Ki (DRD3 F1063.28A [8]): > 10 µM; EC50 (DRD2 F1103.28A [9]): > 10 µM; Emax relative to quinpirole response (DRD2 (D2 long receptor) [10]): 9.29%; EC50 (DRD2 (D2 long receptor) [10]): 8.85 ± 2.62 µM; EC50 (DRD2 F1103.28L [11]): > 10 µM; EC50 (DRD2 F1103.28L [12]): > 10 µM; Ki [13]: > 10 µM
